Source: patent publication US20220040255A1, “CHEMOTHERAPEUTIC REMODELING OF THE GUT MICROBIOME” (THE SCRIPPS RESEARCH INSTITUTE, priority 2018, published 2022)
Where a SMILES comes first, the peptide text is derived from it. [ ]: non-standard residue; d: D form.

Experiments:
atherosclerotic lesions = assay: analysis of atherosclerosis (whole aorta en face, aortic sinus); type: in vivo, LDLr−/− mice; conditions: completion of the 10-week study
Protocol: Analysis of atherosclerosis. Atherosclerotic lesion severity was assessed in the aortae as previously described. Briefly, at euthanasia, animals were perfused with PBS, followed by 4% formaldehyde (10% UltraPure EM Grade from Polysciences diluted in PBS, pH 7.2). For en face analysis, the entire mouse aorta was dissected from the proximal ascending aorta to the bifurcation of the iliac artery by using a dissecting microscope. Adventitial fat was removed, and the aorta was opened longitudinally, pinned flat onto black dissecting wax, stained with Sudan IV, and photographed at a fixed magnification. The photographs were digitized, and total aortic areas and lesion areas were calculated by using Adobe Photoshop and NIH Image J software. The results were reported as a percentage of the total aortic area that contained lesions.
As a second assessment of atherosclerosis, lesions of the aortic root (heart sinus) were analyzed^55. Utilizing stereological principles, lesion volume was estimated across a fixed distance of the aortic sinus. After 10 min fixation in 4% paraformaldehyde, hearts were cut at an angle perpendicular to the atria of the heart and embedded in OCT (Tissue-Tek). Frozen hearts were sectioned on a Leica cryostat, with 10-μm sections collected from the beginning of the aortic sinus (defined as when a valve leaflet became visible) to 500 μm below the beginning of the sinus. […] Sections were collected in duplicate at 50-μm intervals. Sections were stained with oil red O, counterstained with Gill hematoxylin 1 (Fischer Scientific International), photographed, and digitized for lesion analysis. Scoring of valve lesion areas was done for each of the 3 valve cusps individually. Lesion areas found only within the valve cusp were measured. […] Lesion volume was calculated from an integration of the measured cross-sectional areas. Prediction of the coefficient of error (CE) in approximating lesion volume was computed using the Cavalieri estimator derived from a covariogram analysis of an ordered set of estimates of cross-sectional areas. This yielded CE values of less than 10% that were acceptable for a stereological computation of lesion volume.

[1] = test system: gut microbiota from cecum of LDLr−/− mice; assay: in vitro en masse screening assay (cecum culture, 16S rRNA sequencing); type: cell-based; conditions: ranking in remodeling WD gut microbiota toward CHD microbiota composition
Protocol: We have established the following in vitro compound screening protocol for en masse gut microbiome remodeling. We obtain fresh gut microbiome content from LDLr^-/- mice conditioned for at least two weeks on WD by surgically removing cecum under anaerobic conditions. These samples are then mixed with growth media, distributed in 96-well plates, and incubated overnight in the presence of the test peptides. The activity and selectivity of each peptide for remodeling the gut microbiota community was assessed en masse by 16S rRNA sequencing of each well. A number of challenges had to be addressed in developing this protocol, including inoculum handling, choice of growth media, assay duration, etc. Our current assay culture condition maintains 50 bacterial genera (overnight culture), which is fairly representative of the 67 genera found in the uncultured community (Table 2). We used a distance scoring algorithm for a more refined compound selection, in which peptides that remodel the microbiota community most completely from the dysfunctional state (WD fed) toward the functional state (CHD fed) are scored higher. Briefly, we first eliminate cyclic D,L-α-peptides that have broad-spectrum antibacterial activity (inhibit >95% of growth of ≥25% of species in the community). The remaining compounds are then ranked based on how well they suppressed the bacterial species that grew in abundance in WD-fed mice. […] Among these, 40 genera decreased while 14 genera increased in abundance by WD feeding. Within the increased 11 genera, there were 19 bacterial species that were also present in our in vitro culture system. Accordingly, compounds were scored highly when they reduced the levels of 19 bacterial species (lowest summed differences in relative abundance) that were increased by WD feeding to be more similar to their levels in a CHD-fed microbiome (see Table 3 for peptide ranking). Based on these analyses, we chose two peptides for further in vivo validation and efficacy studies: the cationic peptide 1, […] NO:1), and the neutral peptide 11, […] NO:11), which ranked high within their respective peptide clusters. In vitro cecum culture and peptide screening. We screened a number of parameters to optimize the in vitro culture condition for maximal bacterial diversity in liquid culture, including a survey of several different growth media, dilution factors for plate inoculation, and incubation times; further details of the development of this in vitro screen will be reported elsewhere. Female LDLr^-/- mice (8-10 weeks of age) were fed a WD for two weeks. Cecum harvest and all assay steps were performed under anaerobic conditions (Coy Laboratory anaerobic chamber). Cecum contents from three mice were pooled for the assay to provide enough material and to minimize the individual variation in gut microbiome. Cecum contents were suspended in PBS (1.5 ml PBS per 100 mg of cecum content). The mixture was vortexed for 5 min and the supernatant was transferred to a new tube. The cecum content mixture was further diluted in Chopped Meat Carbohydrate Broth (BD 297307) for in vitro peptide screening. […] The concentration of peptide stock in DMSO was calculated based on A280 measurement. For each peptide, an initial 20 mM stock was made in DMSO and diluted to 1 mM in 10% sucrose. From that, a 0.64 mM peptide dilution in 10% sucrose was prepared, and each peptide was further diluted into the assay for peptide screening at two concentrations (64 μM and 16 μM). Bacterial DNA was harvested after 24-hour peptide treatment and isolated with Microbial DNA isolation kit (Mo Bio) following the manufacturer's instructions. 16S rRNA gene sequencing and processing. PCR amplicons of the V3-V4 16S rRNA region were amplified and sequenced using an Illumina MiSeq platform. […]

[2] = test system: gut microbiota metabolites; assay: fecal SCFA and amino acid measurements (LC-MS); type: in vivo, LDLr−/− mice
Protocol: SCFA and amino acid measurements. Fecal SCFA and amino acid content was measured by liquid chromatography-mass spectrometry (LC-MS). The fecal samples were weighed and placed into 2 ml Omni tubes. Ethanol was added to bring the volume to 350 μl. Next, 4 μl of 500 μM d-FA-mix and 20 μl of 1 mM 3CHPA were added to each sample as internal standard. The samples were homogenized using an Omni bead beater at the speed of 4.5 m/s for 30 sec, and then centrifuged at 13,000 rpm for 15 min. 90 μl of the supernatants was transferred into glass HPLC vials. 30 μl of freshly prepared 4×3NPH solution (160 mM 3-nitrophenylhydrazine, 150 mM EDC, pyridine 12% vol, 50% acetonitrile) was added to each sample and the reactions were held at room temperature for 30 min. 2 μl of the sample was injected into the LC-MS (Agilent 1290 HPLC, 6550 qTOF). The concentration of each SCFA and amino acid was calculated based on a standard curve and normalized by the internal control and the feces weight.

## CC(C)C[C@@H]1NC(=O)[C@@H](Cc2c[nH]c3ccccc23)NC(=O)[C@H](CCCCN)NC(=O)[C@@H](Cc2c[nH]cn2)NC(=O)[C@H](CO)NC(=O)[C@@H](Cc2c[nH]cn2)NC(=O)[C@H](CCCCN)NC(=O)[C@@H](Cc2c[nH]c3ccccc23)NC1=O [c[wLwKhShK]] (cyclo([dW]L[dW]K[dH]S[dH]K))
Atherosclerotic lesions
  reduction in atherosclerotic lesions, whole aorta lesion area: 37%
  reduction of aortic sinus lesion volume: 44%
[1]
  ranked distance to chow: 2

## CC(C)C[C@@H]1NC(=O)[C@@H](Cc2c[nH]c3ccccc23)NC(=O)[C@H](CCCNC(=N)N)NC(=O)[C@@H](CCC(=O)O)NC(=O)[C@H](CCC(N)=O)NC(=O)[C@@H](CCC(=O)O)NC(=O)[C@H](CCCNC(=N)N)NC(=O)[C@@H](Cc2c[nH]c3ccccc23)NC1=O [c[wLwReQeR]] (cyclo([dW]L[dW]R[dE]Q[dE]R))
Atherosclerotic lesions
  reduction in atherosclerotic lesions, whole aorta lesion area: 48%
  reduction of aortic sinus lesion volume: 37%
[1]
  ranked distance to chow: 14
[2]; fecal samples, two-week treatment
  levels of fatty acids containing 4-6 carbons, including butyrate: increased levels
[2]; feces, two-week course
  levels of tryptophan and phenylalanine in the feces: higher levels
